Values of other authors, collected in patent US20120195875A1, “DETECTION OF IMMUNE MODULATION RESULTING FROM REDUCED PROTEIN PHOSPHATASE 2A ACTIVITY” (CEDARS-SINAI MEDICAL CENTER, priority 2011, published 2012).

How the values were obtained:
[1] = system: murine peritoneal macrophages

Compound | LPS-induced TNF-α, IL-1β, IFN-β, IP-10, IRF-1, and TNFR-2 release (macrophages) | LPS-induced macrophage responses (macrophages) | LPS tolerance ([1]; 1 h before the first or 16 h before the second LPS stimulation) | p38 phosphorylation ([1]; in response to primary LPS stimulation) | phosphorylation of ERK-1/ERK-2, JNK/SAPK and p38/SAPK-2 ([1]; in response to second LPS stimulation)
COC[C@@H]([C@H](O)[C@H](O)C(=O)NCC[C@H](C)c1nc(/C=C/C[C@@H]2O[C@]3(C[C@@H](O)[C@@H]2C)O[C@H]([C@H](C[C@H](O)[C@H](C)[C@H](O)[C@H](C)/C=C(C)/C(C)=C/C=C/C(C)=C\C#N)OC)[C@H](OP(=O)(O)O)C3(C)C)co1)N(C)C [calyculin A] | inhibit | inhibits | – | – | –
C=C1[C@@H](O)[C@@H]2O[C@]3(CC[C@H](/C=C/[C@@H](C)[C@@H]4CC(C)=C[C@@]5(O[C@H](C[C@@](C)(O)C(=O)O)CC[C@H]5O)O4)O3)CC[C@H]2O[C@@H]1[C@@H](O)C[C@H](C)[C@H]1O[C@@]2(CCCCO2)CC[C@H]1C [okadaic acid] | – | – | reversed LPS tolerance | inhibition | restored and prolonged
